# Measurements: paper PMC6325200, “Effects of Microplate Type and Broth Additives on Microdilution MIC Susceptibility Assays” (Antimicrobial Agents and Chemotherapy, 2018)
# Legend:
# [1] = tested on: MSSA S. aureus ATCC 25923; assay: microbe, parasite or virus in culture; conditions: Staphylococcus aureus, n = 2
# In short: (§1)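 Broth microdilution: 2-fold serial dilutions of test compounds plus reference antibiotics; inoculum = culture diluted 40x in MH broth ±Tween, 37°C, 2–3 h. Controls per plate: bacteria alone (positive), medium alone (negative).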
# [2] = tested on: S. aureus GISA NRS 2; ATCC 700698; assay: microbe, parasite or virus in culture; conditions: Staphylococcus aureus, n = 2
# In short: as §1
# S. pneumoniae ATCC 33440 = assay: microbe, parasite or virus in culture; conditions: Streptococcus pneumoniae, n = 2
# In short: as §1
# [3] = tested on: S. pneumoniae ATCC 700677 (MDR); assay: microbe, parasite or virus in culture; conditions: Streptococcus pneumoniae, ATCC700677
# In short: as §1
# P. aeruginosa ATCC 10145 = assay: microbe, parasite or virus in culture; conditions: Pseudomonas aeruginosa, n = 2
# In short: as §1
# E. faecalis ATCC 29212 = assay: microbe, parasite or virus in culture; conditions: Enterococcus faecalis, n = 2
# In short: as §1
# E. coli ATCC 25922 = assay: microbe, parasite or virus in culture; conditions: Escherichia coli, n = 2
# In short: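 Broth microdilution with 2-fold serial compound dilutions in MH broth, using cultures diluted 40-fold and grown at 37°C for 2 to 3 h, with or without Tween. Variants included 2% beractant added to mid-log cultures, or 50% human serum in MHB.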
# MRSA = conditions: literature value; cited from earlier work
# Description: TABLE 1 Literature MIC values for tested antibiotics | column: MIC (µg/ml) (reference[s]) / MRSA
# E. coli = conditions: literature value; cited from earlier work
compound,measurement,setting,value
"O=C(O)c1cn(C2CC2)c2cc(N3CCNCC3)c(F)cc2c1=O [Ciprofloxacin, ciprofloxacin]",MIC,"[1]; Corning NBS, MHB +T80",0.5 to 1 µg/mL
same,MIC,"[1]; Corning PS, MHB +T80",0.5 µg/mL
same,MIC,"[1]; Corning PS, MHB -T80",0.25 to 0.5 µg/mL
same,MIC,"[1]; Corning TC, MHB +T80",0.5 to 1 µg/mL
same,MIC,"[2]; Corning NBS, MHB +T80",64 µg/mL
same,MIC,"[2]; Corning NBS, MHB -T80",64 µg/mL
same,MIC,"[2]; Corning PS, MHB +T80",64 µg/mL
same,MIC,"[2]; Corning TC, MHB +T80",64 µg/mL
same,MIC,"[2]; Corning TC, MHB -T80",32 to 64 µg/mL
same,MIC,"S. pneumoniae ATCC 33440; ATCC33440, Corning NBS, MHB +T80",0.25 to 1 µg/mL
same,MIC,"S. pneumoniae ATCC 33440; ATCC33440, Corning PS, MHB -T80",0.25 to 0.5 µg/mL
same,MIC,"S. pneumoniae ATCC 33440; ATCC33440, Corning TC, MHB +T80",0.25 to 0.5 µg/mL
same,MIC,"S. pneumoniae ATCC 33440; ATCC33440, Corning TC, MHB -T80",0.25 to 0.5 µg/mL
same,MIC,[3],0.5 to 1 µg/mL
same,MIC,"P. aeruginosa ATCC 10145; ATCC10145, Corning PS, MHB +T80",0.25 to 0.5 µg/mL
same,MIC,"P. aeruginosa ATCC 10145; ATCC10145, Corning TC, MHB +T80",0.25 to 0.5 µg/mL
same,MIC,"P. aeruginosa ATCC 10145; ATCC10145, Corning TC, MHB -T80",≤ 0.03 µg/mL
same,MIC,"E. faecalis ATCC 29212; ATCC29212, Corning NBS, MHB +T80",2 µg/mL
same,MIC,"E. faecalis ATCC 29212; ATCC29212, Corning NBS, MHB -T80",2 µg/mL
same,MIC,"E. faecalis ATCC 29212; ATCC29212, Corning TC, MHB +T80",0.5 to 1 µg/mL
same,MIC,"E. faecalis ATCC 29212; ATCC29212, Corning TC, MHB -T80",0.25 µg/mL
same,MIC,"E. coli ATCC 25922; ATCC25922, 24 h, Corning NBS, MH + 2% LHB, 2% LS",0.03 to 0.06 µg/mL
same,MIC,"E. coli ATCC 25922; ATCC25922, 24 h, Corning NBS, MH + 2% LHB, 50% HS",≤ 0.03 µg/mL
same,MIC,"E. coli ATCC 25922; ATCC25922, 24 h, Corning NBS, MH + 2% LHB, no additive",≤ 0.03 µg/mL
same,MIC,"E. coli ATCC 25922; ATCC25922, 24 h, Corning NBS, MH + T80, 2% LS",≤ 0.03 µg/mL
same,MIC,"E. coli ATCC 25922; ATCC25922, 24 h, Corning NBS, MH + T80, 50% HS",≤ 0.03 µg/mL
same,MIC,"E. coli ATCC 25922; ATCC25922, 24 h, Corning PS, MH + 2% LHB, 2% LS",≤ 0.03 µg/mL
same,MIC,"E. coli ATCC 25922; ATCC25922, 24 h, Corning PS, MH + 2% LHB, 50% HS",≤ 0.03 µg/mL
same,MIC,"E. coli ATCC 25922; ATCC25922, 24 h, Corning PS, MH + 2% LHB, no additive",≤ 0.03 µg/mL
same,MIC,"E. coli ATCC 25922; ATCC25922, 24 h, Corning PS, MH + T80, 2% LS",≤ 0.03 µg/mL
same,MIC,"E. coli ATCC 25922; ATCC25922, 24 h, Corning PS, MH + T80, 50% HS",≤ 0.03 µg/mL
same,MIC,"E. coli ATCC 25922; ATCC25922, 24 h, Corning TC, MH + 2% LHB, 2% LS",≤ 0.03 µg/mL
same,MIC,"E. coli ATCC 25922; ATCC25922, 24 h, Corning TC, MH + 2% LHB, 50% HS",≤ 0.03 µg/mL
same,MIC,"E. coli ATCC 25922; ATCC25922, 24 h, Corning TC, MH + 2% LHB, no additive",≤ 0.03 µg/mL
same,MIC,"E. coli ATCC 25922; ATCC25922, 24 h, Corning TC, MH + T80, 2% LS",≤ 0.03 µg/mL
same,MIC,"E. coli ATCC 25922; ATCC25922, 24 h, Corning TC, MH + T80, 50% HS",≤ 0.03 µg/mL
same,MIC,"E. coli ATCC 25922; ATCC25922, 24 h, Trek PS, MH + 2% LHB, 2% LS",≤ 0.03 µg/mL
same,MIC,"E. coli ATCC 25922; ATCC25922, 24 h, Trek PS, MH + 2% LHB, 50% HS",≤ 0.03 µg/mL
same,MIC,"E. coli ATCC 25922; ATCC25922, 24 h, Trek PS, MH + 2% LHB, no additive",0.03 to 0.06 µg/mL
same,MIC,"E. coli ATCC 25922; ATCC25922, 24 h, Trek PS, MH + T80, 2% LS",≤ 0.03 µg/mL
same,MIC,"E. coli ATCC 25922; ATCC25922, 24 h, Trek PS, MH + T80, 50% HS",≤ 0.03 µg/mL
same,MIC,"E. coli ATCC 25922; ATCC25922, Corning NBS plate, MHB +0.002% T80, no further additive",≤ 0.03 µg/mL
same,MIC,"E. coli ATCC 25922; ATCC25922, Corning NBS plate, MHB −T80, no additive",≤ 0.03 µg/mL
same,MIC,"E. coli ATCC 25922; ATCC25922, Corning NBS, MH, 2% LS",≤ 0.03 µg/mL
same,MIC,"E. coli ATCC 25922; ATCC25922, Corning NBS, MH, 50% HS",≤ 0.03 µg/mL
same,MIC,"E. coli ATCC 25922; ATCC25922, Corning PS plate, MHB +0.002% T80, no further additive",≤ 0.03 µg/mL
same,MIC,"E. coli ATCC 25922; ATCC25922, Corning PS plate, MHB −T80, no additive",≤ 0.03 µg/mL
same,MIC,"E. coli ATCC 25922; ATCC25922, Corning PS, MH, 2% LS",≤ 0.03 µg/mL
same,MIC,"E. coli ATCC 25922; ATCC25922, Corning PS, MH, 50% HS",≤ 0.03 µg/mL
same,MIC,"E. coli ATCC 25922; ATCC25922, Corning TC plate, MHB +0.002% T80, no further additive",≤ 0.03 µg/mL
same,MIC,"E. coli ATCC 25922; ATCC25922, Corning TC plate, MHB −T80, no additive",≤ 0.03 µg/mL
same,MIC,"E. coli ATCC 25922; ATCC25922, Corning TC, MH, 2% LS",≤ 0.03 µg/mL
same,MIC,"E. coli ATCC 25922; ATCC25922, Corning TC, MH, 50% HS",≤ 0.03 µg/mL
same,MIC,"E. coli ATCC 25922; ATCC25922, Nunc PS plate, MHB −T80",≤ 0.03 µg/mL
same,MIC,"E. coli ATCC 25922; ATCC25922, Nunc U TC plate, MHB +0.002% T80",≤ 0.03 µg/mL
same,MIC,"E. coli ATCC 25922; ATCC25922, Nunc U TC plate, MHB −T80",≤ 0.03 µg/mL
same,MIC,"E. coli ATCC 25922; ATCC25922, Nunc flat TC plate, MHB +0.002% T80",≤ 0.03 µg/mL
same,MIC,"E. coli ATCC 25922; ATCC25922, Nunc flat TC plate, MHB −T80",≤ 0.03 µg/mL
same,MIC,"E. coli ATCC 25922; ATCC25922, Trek PS plate, MHB +0.002% T80, no further additive",≤ 0.03 µg/mL
same,MIC,"E. coli ATCC 25922; ATCC25922, Trek PS plate, MHB −T80, no additive",≤ 0.03 µg/mL
same,MIC,"E. coli ATCC 25922; ATCC25922, Trek PS, MH, 2% LS",≤ 0.03 µg/mL
same,MIC,"E. coli ATCC 25922; ATCC25922, Trek PS, MH, 50% HS",≤ 0.03 µg/mL
same,MIC (literature),MRSA,0.5 ([63]) µg/ml
same,MIC (literature),E. coli,"0.03–0.06 ([64], [65]) µg/ml"
